Data reported in publication PMC10687071 (The Journal of Biological Chemistry, 2023).
Residue numbers refer to the chain shown, from its start.

What was measured:
[1] = target: T1, V80G mutant EAG1 channels (Mus musculus, UniProt Q60603, V80G); test: TEVC recording, imipramine inhibition, V80G mutant; type: cell-based; settings: V80G mutant EAG1 channel, +50 mV
T1 construct: expressed in transfected cells; host or cells: Xenopus laevis oocytes injected with cRNA
T1 sequence (Q60603 1-989 V80G): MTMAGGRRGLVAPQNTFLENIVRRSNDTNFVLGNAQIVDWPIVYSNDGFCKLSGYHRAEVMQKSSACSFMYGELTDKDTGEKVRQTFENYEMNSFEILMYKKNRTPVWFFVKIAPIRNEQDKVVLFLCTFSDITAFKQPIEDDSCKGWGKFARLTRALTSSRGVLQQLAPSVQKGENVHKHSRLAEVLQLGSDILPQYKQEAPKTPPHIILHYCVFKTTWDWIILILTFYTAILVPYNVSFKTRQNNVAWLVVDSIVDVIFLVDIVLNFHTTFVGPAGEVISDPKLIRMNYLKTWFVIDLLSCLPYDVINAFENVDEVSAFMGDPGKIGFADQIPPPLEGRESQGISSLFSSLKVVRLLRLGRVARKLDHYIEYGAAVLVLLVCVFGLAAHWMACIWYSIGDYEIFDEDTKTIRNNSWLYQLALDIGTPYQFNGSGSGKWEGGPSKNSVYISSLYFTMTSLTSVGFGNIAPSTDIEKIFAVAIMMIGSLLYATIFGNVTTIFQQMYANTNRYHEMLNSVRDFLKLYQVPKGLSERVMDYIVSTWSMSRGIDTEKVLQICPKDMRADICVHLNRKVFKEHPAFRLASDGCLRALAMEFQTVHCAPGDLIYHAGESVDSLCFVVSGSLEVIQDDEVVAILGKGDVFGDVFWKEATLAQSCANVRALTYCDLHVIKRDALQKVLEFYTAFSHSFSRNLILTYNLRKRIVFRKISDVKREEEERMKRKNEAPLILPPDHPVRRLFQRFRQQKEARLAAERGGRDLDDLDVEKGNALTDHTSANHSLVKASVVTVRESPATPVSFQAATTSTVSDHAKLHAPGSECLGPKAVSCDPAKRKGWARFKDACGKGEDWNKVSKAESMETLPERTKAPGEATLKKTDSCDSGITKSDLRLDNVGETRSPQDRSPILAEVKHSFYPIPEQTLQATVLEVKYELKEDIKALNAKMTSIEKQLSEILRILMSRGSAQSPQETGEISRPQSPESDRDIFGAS
Source text: (§1) The cDNA encoding wild-type (WT) mouse EAG1 channels in pGH19 vector was kindly provided by G. Robertson (University of Wisconsin-Madison, Madison, WI). The mutant ΔPAS EAG1 channel in pGH19 with the deletion of the PAS domain residues 2 to 130 was generated by Bio Basic Inc and verified by DNA sequencing (Genewiz). Mutant EAG1 channels with single amino acid substitutions were generated by Genewiz and verified by DNA sequencing. cRNA was transcribed using the T7 mMessage mMachine kit (Thermo Fisher Scientific). Defolliculated Xenopus laevis oocytes were purchased from Ecocyte Bioscience or Xenopus1 and injected with the cRNA using a Nanoinject II oocyte injector (Drummond).
(§2) For EAG1 current recordings, oocytes were placed into a handmade chamber containing a bath solution for the current recording. The currents were recorded using a TEVC technique with OC-725C amplifier (Warner Instruments) and pClamp11 software (Molecular Devices). The signals were digitized using Digidata 1550 (Molecular Devices). Patch pipettes were pulled from borosilicate glass and had resistances of 0.7 to 1.5 MΩ. The recording (bath) solution contained 96 mM NaCl, 4 mM KCl, 0.1 mM CaCl2, 1.8 mM MgCl2, and 5 mM HEPES, pH 7.5. The pipette solution contained 3 M KCl. […]

WT EAG1 channels = target: T2, WT EAG1 channels (Mus musculus, UniProt Q60603); test: TEVC recording of EAG1 currents in Xenopus oocytes, imipramine inhibition, WT channel; type: cell-based; settings: IC50 for imipramine inhibition at +50 mV
T2 construct: expressed in transfected cells; host or cells: Xenopus laevis oocytes injected with cRNA
T2 sequence (Q60603 1-989): T1 sequence (Q60603 1-989 V80G) with G80V
Source text: as §1, §2

Q: What does the source list for `CN(C)CCCN1c2ccccc2CCc2ccccc21` [imipramine]?
A: IC50 [1]: 57.1 ± 3.1 µM; IC50 (WT EAG1 channels): 58.1 ± 9.7 µM
